# Laboratory results as given in ChEMBL document CHEMBL5528047, “A Potent SOS1 PROTAC Degrader with Synergistic Efficacy in Combination with KRASG12C Inhibitor” (J Med Chem, 2024).
# Activity calls are given as the source filed them. The rule behind the calls is not given here.
# Assays:
# [1] = molecular target: T1, von Hippel-Lindau disease tumor suppressor/Son of sevenless homolog 1 (Homo sapiens, UniProt Q07889+P40337); assay: Protac activity at VHL/SOS1 in human PANC-1 cells assessed as SOS1 degradation at 1 uM by Western blotting analysis relative to control; assay type: cell-based
# Target sequence in this assay (P40337 whole entry, looked up): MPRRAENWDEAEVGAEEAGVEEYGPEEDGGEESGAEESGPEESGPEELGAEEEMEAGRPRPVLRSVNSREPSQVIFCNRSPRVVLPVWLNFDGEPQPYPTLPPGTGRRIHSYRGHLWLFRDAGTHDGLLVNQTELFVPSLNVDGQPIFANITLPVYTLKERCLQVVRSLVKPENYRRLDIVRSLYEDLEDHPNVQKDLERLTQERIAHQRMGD
# Target sequence in this assay (Q07889 whole entry, looked up): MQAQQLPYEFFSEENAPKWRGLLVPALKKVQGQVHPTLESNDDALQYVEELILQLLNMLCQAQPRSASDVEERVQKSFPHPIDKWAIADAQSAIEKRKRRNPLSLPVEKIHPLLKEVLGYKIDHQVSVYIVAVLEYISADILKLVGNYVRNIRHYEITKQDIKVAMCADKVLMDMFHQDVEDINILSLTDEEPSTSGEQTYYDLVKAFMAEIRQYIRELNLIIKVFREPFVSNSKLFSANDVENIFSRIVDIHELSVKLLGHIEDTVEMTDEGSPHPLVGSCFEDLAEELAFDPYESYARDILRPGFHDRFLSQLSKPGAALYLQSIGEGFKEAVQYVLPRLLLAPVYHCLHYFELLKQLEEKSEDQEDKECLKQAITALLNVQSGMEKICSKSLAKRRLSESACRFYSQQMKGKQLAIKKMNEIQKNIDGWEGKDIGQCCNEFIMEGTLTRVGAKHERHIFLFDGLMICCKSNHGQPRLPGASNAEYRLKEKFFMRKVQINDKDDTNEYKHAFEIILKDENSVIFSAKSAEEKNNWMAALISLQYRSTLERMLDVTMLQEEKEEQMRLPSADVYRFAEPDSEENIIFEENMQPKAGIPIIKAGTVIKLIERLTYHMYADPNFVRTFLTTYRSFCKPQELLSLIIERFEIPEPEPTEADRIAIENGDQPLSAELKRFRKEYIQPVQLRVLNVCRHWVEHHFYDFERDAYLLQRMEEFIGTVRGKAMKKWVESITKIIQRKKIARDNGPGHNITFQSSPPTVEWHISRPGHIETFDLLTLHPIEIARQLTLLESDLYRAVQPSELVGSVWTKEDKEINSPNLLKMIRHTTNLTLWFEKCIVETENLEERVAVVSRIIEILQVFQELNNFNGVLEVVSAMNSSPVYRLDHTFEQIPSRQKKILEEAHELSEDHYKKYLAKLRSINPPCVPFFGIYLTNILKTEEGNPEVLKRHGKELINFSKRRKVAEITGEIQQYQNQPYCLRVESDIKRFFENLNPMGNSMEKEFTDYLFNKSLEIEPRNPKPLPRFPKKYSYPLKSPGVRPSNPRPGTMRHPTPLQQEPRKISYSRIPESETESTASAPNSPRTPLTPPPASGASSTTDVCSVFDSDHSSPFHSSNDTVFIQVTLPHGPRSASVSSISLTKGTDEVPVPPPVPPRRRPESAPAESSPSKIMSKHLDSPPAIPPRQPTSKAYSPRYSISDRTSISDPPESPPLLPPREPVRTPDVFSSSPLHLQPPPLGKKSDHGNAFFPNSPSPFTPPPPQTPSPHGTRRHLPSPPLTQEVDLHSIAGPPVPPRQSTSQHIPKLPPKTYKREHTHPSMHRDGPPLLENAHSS
# [2] = molecular target: T1, von Hippel-Lindau disease tumor suppressor/Son of sevenless homolog 1; assay: Protac activity at VHL/SOS1 in human PANC-1 cells assessed as SOS1 degradation at 10 uM by Western blotting analysis relative to control; assay type: cell-based
# Target sequence in this assay (P40337 whole entry, looked up): as the sequence (P40337 whole entry, looked up) above
# Target sequence in this assay (Q07889 whole entry, looked up): as the sequence (Q07889 whole entry, looked up) above
# [3] = molecular target: T1, von Hippel-Lindau disease tumor suppressor/Son of sevenless homolog 1; assay: Protac activity at VHL/SOS1 in human K562 cells assessed as SOS1 degradation at 1 uM by Western blotting analysis relative to control; assay type: cell-based
# Target sequence in this assay (P40337 whole entry, looked up): as the sequence (P40337 whole entry, looked up) above
# Target sequence in this assay (Q07889 whole entry, looked up): as the sequence (Q07889 whole entry, looked up) above
# [4] = molecular target: T1, von Hippel-Lindau disease tumor suppressor/Son of sevenless homolog 1; assay: Protac activity at VHL/SOS1 in human K562 cells assessed as SOS1 degradation at 10 uM by Western blotting analysis relative to control; assay type: cell-based
# Target sequence in this assay (P40337 whole entry, looked up): as the sequence (P40337 whole entry, looked up) above
# Target sequence in this assay (Q07889 whole entry, looked up): as the sequence (Q07889 whole entry, looked up) above
# [5] = molecular target: T1, von Hippel-Lindau disease tumor suppressor/Son of sevenless homolog 1; assay: Protac activity at VHL/SOS1 in human K562 cells assessed as SOS1 degradation incubated for 24 hrs by Western blotting analysis; assay type: cell-based
# [6] = molecular target: T1, von Hippel-Lindau disease tumor suppressor/Son of sevenless homolog 1; assay: Protac activity at VHL/SOS1 in human PANC-1 cells assessed as SOS1 degradation incubated for 24 hrs by Western blotting analysis; assay type: cell-based
# [7] = molecular target: T1, von Hippel-Lindau disease tumor suppressor/Son of sevenless homolog 1; assay: Protac activity at VHL/SOS1 in human MIA PaCa-2 cells assessed as SOS1 degradation incubated for 24 hrs by Western blotting analysis; assay type: cell-based
# [8] = molecular target: T1, von Hippel-Lindau disease tumor suppressor/Son of sevenless homolog 1; assay: Protac activity at VHL/SOS1 in human NCI-H358 cells assessed as SOS1 degradation incubated for 24 hrs by Western blotting analysis; assay type: cell-based
# [9] = molecular target: T2, Protein cereblon/Son of sevenless homolog 1 (Homo sapiens) (UniProt Q07889+Q96SW2); assay: Protac activity at CRBN/SOS1 in human PANC-1 cells assessed as SOS1 degradation at 1 uM by Western blotting analysis; assay type: cell-based
# T2 sequence (Q07889 whole entry, looked up): as above
# T2 sequence (Q96SW2 whole entry, looked up): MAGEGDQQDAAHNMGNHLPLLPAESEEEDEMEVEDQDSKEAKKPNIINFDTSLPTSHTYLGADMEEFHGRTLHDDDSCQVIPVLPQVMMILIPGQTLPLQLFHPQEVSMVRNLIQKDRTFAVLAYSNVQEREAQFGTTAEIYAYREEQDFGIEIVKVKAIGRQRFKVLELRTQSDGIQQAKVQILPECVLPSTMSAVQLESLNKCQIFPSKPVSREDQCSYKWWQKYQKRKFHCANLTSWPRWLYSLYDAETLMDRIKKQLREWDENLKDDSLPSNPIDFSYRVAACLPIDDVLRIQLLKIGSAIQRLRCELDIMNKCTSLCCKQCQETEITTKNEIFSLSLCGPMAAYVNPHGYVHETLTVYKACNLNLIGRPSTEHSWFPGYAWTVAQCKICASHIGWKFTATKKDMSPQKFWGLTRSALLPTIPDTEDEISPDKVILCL
# [10] = molecular target: T2, Protein cereblon/Son of sevenless homolog 1 (Homo sapiens); assay: Protac activity at CRBN/SOS1 in human PANC-1 cells assessed as SOS1 degradation at 10 uM by Western blotting analysis relative to control; assay type: cell-based
# [11] = molecular target: T2, Protein cereblon/Son of sevenless homolog 1 (Homo sapiens); assay: Protac activity at CRBN/SOS1 in human K562 cells assessed as SOS1 degradation at 1 uM by Western blotting analysis relative to control; assay type: cell-based
# [12] = molecular target: T2, Protein cereblon/Son of sevenless homolog 1 (Homo sapiens); assay: Protac activity at CRBN/SOS1 in human K562 cells assessed as SOS1 degradation at 10 uM by Western blotting analysis relative to control; assay type: cell-based
# [13] = test system: K562; assay: Antiproliferative activity against human K562 cells incubated for 72 hrs by CCK8 assay; assay type: functional, cell-based; conditions: K562, 72 h
# [14] = test system: MIA PaCa-2; assay: Antiproliferative activity against human MIA PaCa-2 cells incubated for 72 hrs by CCK8 assay; assay type: functional, cell-based; conditions: MIA PaCa-2, 72 h
# [15] = test system: MIA PaCa-2; assay: Inhibition of ERK phosphorylation in human MIA PaCa-2 cells at 300 nM after 24 hrs; assay type: cell-based
# [16] = test system: NCI-H358; assay: Inhibition of ERK phosphorylation in human NCI-H358 cells at 300 nM after 24 hrs; assay type: cell-based
# [17] = test system: MIA PaCa-2; assay: Upregulation of SOS1 protein in human MIA PaCa-2 cells; assay type: functional, cell-based
# [18] = test system: NCI-H358; assay: Upregulation of SOS1 protein in human NCI-H358 cells; assay type: functional, cell-based
# [19] = Stability in human MIA PaCa-2 cells assessed as compound remaining at 0.2 mM after 72 hrs by HPLC analysis; assay type: ADME, cell-based; conditions: read-out: Stability
# [20] = Stability in human NCI-H358 cells assessed as compound remaining at 0.2 mM after 72 hrs by HPLC analysis; assay type: ADME, cell-based; conditions: read-out: Stability
# [21] = test system: MIA PaCa-2; assay: Inhibition of RAS pathway in SOS1 knockout human MIA PaCa-2 cells at 100 nM; assay type: cell-based
# [22] = test system: NCI-H358; assay: Inhibition of RAS pathway in SOS1 knockout human NCI-H358 cells at 100 nM; assay type: cell-based
# [23] = test system: MIA PaCa-2; assay: Inhibition of ERK phosphorylation in human MIA PaCa-2 cells at 100 nM after 24 to 72 hrs in presence of BI3406 by Western blotting analysis; assay type: cell-based; conditions: time 24-72 hrs
# [24] = test system: NCI-H358; assay: Antiproliferative activity against human NCI-H358 cells incubated for 6 days by CCK8 assay; assay type: functional, cell-based; conditions: NCI-H358, 144 h
# [25] = test system: MIA PaCa-2; assay: Antiproliferative activity against human MIA PaCa-2 cells incubated for 6 days by CCK8 assay; assay type: functional, cell-based; conditions: MIA PaCa-2, 144 h
# [26] = test system: SW837; assay: Antiproliferative activity against human SW837 cells incubated for 6 days by CCK8 assay; assay type: functional, cell-based; conditions: SW837, 144 h
# [27] = test system: NCI-H358; assay: (§1) Antiproliferative activity against human NCI-H358 cells incubated for 6 days in presence of 1 uM (2S,4R)-1-((S)-2-(5-((4-(((R)-1-(3-amino-5-(trifluoromethyl)phenyl)ethyl)amino)-7-methoxy-2-methylquinazolin-6-yl)oxy)pentanamido)-3,3-dimethylbutanoyl)-4-hydroxy-N-(4-(4-methylthiazol-5-yl)benzyl)pyrrolidine-2-carboxamide by CCK8 assay; assay type: functional, cell-based; conditions: NCI-H358, 144 h
# [28] = test system: MIA PaCa-2; assay: as §1, with “MIA PaCa-2” for “NCI-H358”; assay type: functional, cell-based; conditions: MIA PaCa-2, 144 h
# [29] = test system: SW837; assay: as §1, with “SW837” for “NCI-H358”; assay type: functional, cell-based; conditions: SW837, 144 h
# [30] = test system: NCI-H358; assay: as §1, with “of 10” for “of 1”; assay type: functional, cell-based; conditions: NCI-H358, 144 h
# [31] = test system: MIA PaCa-2; assay: as §1, with “human MIA PaCa-2” for “human NCI-H358”, “of 10” for “of 1”; assay type: functional, cell-based; conditions: MIA PaCa-2, 144 h
# [32] = test system: SW837; assay: as §1, with “human SW837” for “human NCI-H358”, “of 10” for “of 1”; assay type: functional, cell-based; conditions: SW837, 144 h
# [33] = test system: NCI-H358; assay: Antitumor activity against human NCI-H358 cells xenografted in BALB/c mouse assessed as tumor growth inhibition at 10 mg/kg, ip administered once daily for 28 days; assay type: functional; conditions: NCI-H358, 672 h, time 28 day, read-out: TGI
smiles,measurement,setting,value
COc1cc2nc(C)nc(N[C@H](C)c3cc(-c4ccccc4CNCCCCCCC(=O)N[C@H](C(=O)N4C[C@H](O)C[C@H]4C(=O)NCc4ccc(-c5scnc5C)cc4)C(C)(C)C)cs3)c2cc1OC,Activity,[1],44%
same,Activity,[2],75.1%
same,Activity,[3],18.9%
same,Activity,[4],80.1%
same,Activity,[5],Dose-Dependent Effect
same,DC50,[5],776 nM
same,Activity,[6],Dose-Dependent Effect
same,DC50,[6],701 nM
same,Activity,[7],Dose-Dependent Effect
same,DC50,[7],870 nM
same,Activity,[8],Dose-Dependent Effect
same,DC50,[8],910 nM
COc1cc2nc(C)nc(N[C@H](C)c3cc(-c4ccccc4CNCCCCCCCNc4ccc5c(c4)C(=O)N(C4CCC(=O)NC4=O)C5=O)cs3)c2cc1OC (stereo partly specified),Activity,[9],0%
same,Activity,[10],3.4%
same,Activity,[11],35.4%
same,Activity,[12],72.1%
COc1cc2nc(C)nc(N[C@H](C)c3cc(N)cc(C(F)(F)F)c3)c2cc1O[C@H]1CCOC1,IC50,[13],1420 nM
same,IC50,[14],29 nM
C=CC(=O)N1CCN(c2nc(=O)n(-c3c(C)ccnc3C(C)C)c3nc(-c4c(O)cccc4F)c(F)cc23)[C@@H](C)C1 [SOTORASIB],inhibition,[15],Active
same,inhibition,[16],Active
same,Activity,[17],Active
same,Activity,[18],Active
same,"remaining at 72 h, 200 µM",[19],> 70%
same,"remaining at 72 h, 200 µM",[20],> 70%
same,inhibition,[21],Active
same,inhibition,[22],Active
same,inhibition,[23],Active
same,IC50,[24],10 nM
same,IC50,[25],37 nM
same,IC50,[26],9 nM
same,IC50,[27],4 nM
same,IC50,[28],13 nM
same,IC50,[29],3 nM
same,IC50,[30],1 nM
same,IC50,[31],6 nM
same,IC50,[32],2 nM
same,inhibition in vivo at 10 mg/kg,[33],34.9%
COc1cc2nc(C)nc(N[C@H](C)c3cc(-c4ccccc4CNCCCCCCNc4ccc5c(c4)C(=O)N(C4CCC(=O)NC4=O)C5=O)cs3)c2cc1OC (stereo partly specified),Activity,[9],0%
same,Activity,[10],0%
same,Activity,[11],0%
same,Activity,[12],37.7%
